Assay results: ChEMBL document CHEMBL1145472, “Genetic basis of resistance to fusidic acid in staphylococci” (2007)
≈ marks a conversion by molar mass, not a printed value.

Tests used:
Format in all cases: functional
Staphylococcus aureus [1] = test: Antimicrobial activity against Staphylococcus aureus RN4220 expressing pCU1 gene
[2] = system: Staphylococcus intermedius; test: Antimicrobial activity against Staphylococcus intermedius CL2
Staphylococcus aureus [3] = test: Antimicrobial activity against Staphylococcus aureus CS808
Staphylococcus aureus [4] = test: Antimicrobial activity against Staphylococcus aureus
[5] = system: Staphylococcus lugdunensis; test: Antimicrobial activity against Staphylococcus lugdunensis 16641
Staphylococcus aureus [6] = test: Antimicrobial activity against Staphylococcus aureus RN4220 expressing (pAJ96:SAS0043) (fusC) gene
Staphylococcus aureus [7] = test: Antimicrobial activity against Staphylococcus aureus CS860
[8] = system: Staphylococcus lugdunensis; test: Antimicrobial activity against Staphylococcus lugdunensis 31440
Staphylococcus aureus [9] = test: Antimicrobial activity against Staphylococcus aureus CS992
Staphylococcus aureus [10] = test: Antimicrobial activity against Staphylococcus aureus RN4220 expressing pAJ96
Staphylococcus aureus [11] = test: Antimicrobial activity against methicillin-susceptible Staphylococcus aureus 476
Staphylococcus aureus [12] = test: Antimicrobial activity against Staphylococcus aureus CS805
Staphylococcus aureus [13] = test: Antimicrobial activity against Staphylococcus aureus RN4220 expressing (pAJ96:SSP2165) (fusD) gene
Staphylococcus aureus [14] = test: Antimicrobial activity against Staphylococcus aureus CS730
Staphylococcus aureus [15] = test: Antimicrobial activity against Staphylococcus aureus CS1128
[16] = system: Staphylococcus lugdunensis; test: Antimicrobial activity against Staphylococcus lugdunensis 16496
Staphylococcus aureus [17] = test: Antimicrobial activity against Staphylococcus aureus CS602
Staphylococcus aureus [18] = test: Antimicrobial activity against Staphylococcus aureus RN4220 expressing (pCU1:SAS0043) (fusC) gene
Staphylococcus aureus [19] = test: Antimicrobial activity against Staphylococcus aureus RN4220 expressing pAJ96:fusB
Staphylococcus aureus [20] = test: Antimicrobial activity against Staphylococcus aureus CS1076
Staphylococcus aureus [21] = test: Antimicrobial activity against Staphylococcus aureus CS866
[22] = system: Staphylococcus intermedius; test: Antimicrobial activity against Staphylococcus intermedius CL1
Staphylococcus aureus [23] = test: Antimicrobial activity against Staphylococcus aureus CS979
Staphylococcus aureus [24] = test: Antimicrobial activity against Staphylococcus aureus CS1083
[25] = system: Staphylococcus intermedius; test: Antimicrobial activity against Staphylococcus intermedius NCTC 11048
Staphylococcus aureus [26] = test: Antimicrobial activity against Staphylococcus aureus RN4220
Staphylococcus aureus [27] = test: Antimicrobial activity against Staphylococcus aureus RN4220 expressing (pCU1:SSP2165) (fusD) gene
[28] = system: Staphylococcus lugdunensis; test: Antimicrobial activity against Staphylococcus lugdunensis 40869
Staphylococcus aureus [29] = test: Antimicrobial activity against Staphylococcus aureus CS851
[30] = system: Staphylococcus saprophyticus; test: Antimicrobial activity against Staphylococcus saprophyticus ATCC 15305
Staphylococcus aureus [31] = test: Antimicrobial activity against Staphylococcus aureus 649 expressing pUB101
Staphylococcus aureus [32] = test: Antimicrobial activity against Staphylococcus aureus CS957
Staphylococcus aureus [33] = test: Antimicrobial activity against Staphylococcus aureus RN4220 expressing pCU1:fusB gene

In the case of `CC(=O)O[C@H]1C[C@@]2(C)[C@@H](C[C@@H](O)[C@H]3[C@@]4(C)CC[C@@H](O)[C@@H](C)[C@@H]4CC[C@@]32C)/C1=C(\CCC=C(C)C)C(=O)O` [FUSIDIC ACID], the MIC (Staphylococcus aureus [1]) is reported as 0.125 µg/mL (≈ 0.242 µM), the MIC [2] is reported as 4 µg/mL (≈ 7.74 µM) and the MIC (Staphylococcus aureus [3]) is reported as 3 µg/mL (≈ 5.81 µM). For the same compound, the MIC (Staphylococcus aureus [4]) was 4 µg/mL (≈ 7.74 µM), the MIC [5] was 4 µg/mL (≈ 7.74 µM) and the MIC (Staphylococcus aureus [6]) was 16 µg/mL (≈ 31 µM). It also gave an MIC (Staphylococcus aureus [7]) of 8 µg/mL (≈ 15.5 µM), an MIC [8] of 4 µg/mL (≈ 7.74 µM) and an MIC (Staphylococcus aureus [9]) of 2 µg/mL (≈ 3.87 µM). It also gave an MIC (Staphylococcus aureus [10]) of 0.125 µg/mL (≈ 0.242 µM), an MIC (Staphylococcus aureus [11]) of 8 µg/mL (≈ 15.5 µM) and an MIC (Staphylococcus aureus [12]) of 8 µg/mL (≈ 15.5 µM). It also gave an MIC (Staphylococcus aureus [13]) of 4 µg/mL (≈ 7.74 µM), an MIC (Staphylococcus aureus [14]) of 3 µg/mL (≈ 5.81 µM) and an MIC (Staphylococcus aureus [15]) of 4 µg/mL (≈ 7.74 µM). For the same compound, the MIC [16] was 4 µg/mL (≈ 7.74 µM), the MIC (Staphylococcus aureus [17]) was 4 µg/mL (≈ 7.74 µM) and the MIC (Staphylococcus aureus [18]) was 16 µg/mL (≈ 31 µM). The MIC (Staphylococcus aureus [19]) was 32 µg/mL (≈ 61.9 µM), the MIC (Staphylococcus aureus [20]) was 8 µg/mL (≈ 15.5 µM) and the MIC (Staphylococcus aureus [21]) was 3 µg/mL (≈ 5.81 µM). For the same compound, the MIC [22] was 4 µg/mL (≈ 7.74 µM), the MIC (Staphylococcus aureus [23]) was 4 µg/mL (≈ 7.74 µM) and the MIC (Staphylococcus aureus [24]) was 4 µg/mL (≈ 7.74 µM). The MIC [25] was 0.064 µg/mL (≈ 0.124 µM), the MIC (Staphylococcus aureus [26]) was 0.125 µg/mL (≈ 0.242 µM) and the MIC (Staphylococcus aureus [27]) was 2 µg/mL (≈ 3.87 µM). For the same compound, the MIC [28] was 0.064 µg/mL (≈ 0.124 µM), the MIC (Staphylococcus aureus [29]) was 4 µg/mL (≈ 7.74 µM) and the MIC [30] was 2 µg/mL (≈ 3.87 µM). The MIC (Staphylococcus aureus [31]) was 16 µg/mL (≈ 31 µM), the MIC (Staphylococcus aureus [32]) was 3 µg/mL (≈ 5.81 µM) and the MIC (Staphylococcus aureus [33]) was 16 µg/mL (≈ 31 µM).
